Source: patent US12669497B2, “Affinity labeling of DNA-linked ligands for high throughput ligand binding assays and the uses thereof” (Purdue Research Foundation, priority 2020, dated 2026)

What was measured:
[1] = molecular target: DHFR (Escherichia coli, UniProt P0ABQ4); experiment: Validation of novel hit by FP assay (IC50); type: binding; conditions: validation of screening hit; FIG. 2g
Description: (§1) FIGS. 2A-2H show the application of LDA in quantifying compounds' IC50 and screening. […] IC50 of compound 1-3 determined by LDA (FIG. 2B) and FP assay (FIG. 2C). […] DNA samples with read numbers below 2 in sequencing were excluded.
(§2) Enrichment of the probes from the two groups were well distinguished (Z′ factor=0.77), indicating a robustness suitable for HTS (FIG. 1e). To further assess well-to-well variability, this experiment was repeated with separate incubation of samples in a well plate. A similar but slightly worse Z′ factor (Z′=0.54, Fig. SX) was observed. We then used this approach to screen the Library of Pharmacologically Active Compounds (LOPAC) library against dihydrofolate reductase (DHFR), a therapeutic target for treating infections (FIG. 2f). Hit compounds within the library displaces the DNA-linked trimethoprim, leading to lower enrichment of the DNA-trimethoprim.

[2] = molecular target: dihydrofolate reductase (DHFR) (Escherichia coli, UniProt P0ABQ4); experiment: LDA screening of LOPAC library with DNA-linked trimethoprim probe; type: binding; conditions: FIG. 2f
Description: as §1, §2

For CN(CCOc1ccc(C[C@H](Nc2ccccc2C(=O)c2ccccc2)C(=O)O)cc1)c1ccccn1 [GW1929], which IC50 [1] is on record?
The IC50 was 7.9 µM.

And the “probe recovery (enrichment of DNA-trimethoprim) in LOPAC screen” value [2]?
Its value is “low probe recovery”.
